Reference: patent US12685312B2, “Sulfonamide apyrase inhibitors” (Texas Crop Science, Inc., priority 2022, dated 2026)

Each molecule was assayed on apyrase (assay: Screen for apyrase inhibitors (Method 1, in vitro phosphate-release absorbance assay)). Conditions: inhibitor conc at 1 mM stock, 1 hr room temperature, absorbance 630 nm; rounded average of two assay results.
Type: biochemical
Procedure, shortened: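 Phosphate-release colorimetric assay (Windsor method) in 60 mM Hepes, 3 mM MgCl2, 3 mM CaCl2, 3 mM ATP, pH 6.5, with compound or DMSO control added. Released phosphate developed with ammonium molybdate and ascorbic acid/TCA, then stopped with citrate/acetic acid.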

In order of falling “% Inhibition of Apyrase” value:
1. O=C(Nc1ccc(F)cc1Cl)c1ccc(S(=O)(=O)Nc2ccc(SC(F)F)cc2)cc1 [I-380, N-(2-chloro-4-fluorophenyl)-4-(N-(4-((difluoromethyl)thio)phenyl)sulfamoyl) benzamide]  73%
2. COc1ccc(OC)c(NC(=O)c2cccc(S(=O)(=O)N3c4ccccc4CC3C)c2)c1 (stereo not shown) [I-429, N-(2,5-dimethoxyphenyl)-3-((2-methylindolin-1-yl)sulfonyl)benzamide]  73%
3. CC1Cc2ccccc2N1C(=O)c1ccc(S(=O)(=O)Nc2ccccc2)cc1 (stereo not shown) [I-381, 4-(2-methylindoline-1-carbonyl)-N-phenylbenzenesulfonamide]  72%
4. COc1ccc([N+](=O)[O-])cc1NS(=O)(=O)c1cccc(C(=O)Nc2ccc(F)c([N+](=O)[O-])c2)c1 [I-430, N-(4-fluoro-3-nitrophenyl)-3-(N-(2-methoxy-5-nitrophenyl)sulfamoyl)benzamide]  72%
5. COc1ccc([N+](=O)[O-])cc1NS(=O)(=O)c1ccc(C(=O)Nc2ccc(Cl)cc2)cc1 [I-382, N-(4-chlorophenyl)-4-(N-(2-methoxy-5-nitrophenyl)sulfamoyl)benzamide]  69%
6. CCOC(=O)c1sc(NC(=O)c2cccc(S(=O)(=O)Nc3ccc(F)cc3)c2)cc1C [I-431, ethyl 5-(3-(N-(4-fluorophenyl)sulfamoyl)benzamido)-3-methylthiophene-2-carboxylate]  68%
7. O=C(Nc1ccccc1OC(F)F)c1ccc(S(=O)(=O)Nc2ccccc2F)cc1 [I-383, N-(2-(difluoromethoxy)phenyl)-4-(N-(2-fluorophenyl)sulfamoyl)benzamide]  66%
8. Cc1ccc(NS(=O)(=O)c2ccc(C(=O)Nc3cccc(C#N)c3)cc2)cc1C [I-384, N-(3-cyanophenyl)-4-(N-(3,4-dimethylphenyl)sulfamoyl)benzamide]  66%
9. CCOC(=O)c1sc(NC(=O)c2cccc(S(=O)(=O)Nc3ccccc3F)c2)cc1C [I-432, ethyl 5-(3-(N-(2-fluorophenyl)sulfamoyl)benzamido)-3-methylthiophene-2-carboxylate]  66%
10. O=C(Nc1ccc(Cl)c(S(=O)(=O)N2CCOCC2)c1)c1ccc(S(=O)(=O)Nc2cccc(C(F)(F)F)c2)cc1 [I-386, N-(4-chloro-3-(morpholinosulfonyl)phenyl)-4-(N-(3-(trifluoromethyl)phenyl)sulfamoyl)benzamide]  65%
11. Cc1cc(Cl)ccc1NC(=O)c1ccc(Cl)c(S(=O)(=O)Nc2ccc(Cl)cc2C)c1 [I-433, 4-chloro-N-(4-chloro-2-methylphenyl)-3-(N-(4-chloro-2-methylphenyl)sulfamoyl)benzamide]  65%
12. CCOc1ccccc1NC(=O)c1ccc(Cl)c(S(=O)(=O)N2CCc3ccccc32)c1 [I-434, 4-chloro-N-(2-ethoxyphenyl)-3-(indolin-1-ylsulfonyl)benzamide]  65%
13. COc1ccc(NS(=O)(=O)c2cccc(C(=O)N3c4ccccc4CC3C)c2)cc1 (stereo not shown) [I-435, N-(4-methoxyphenyl)-3-(2-methylindoline-1-carbonyl)benzenesulfonamide]  64%
14. COc1ccc(S(=O)(=O)N2CCc3ccccc32)cc1C(=O)Nc1ccccc1C [I-436, 5-(indolin-1-ylsulfonyl)-2-methoxy-N-(o-tolyl)benzamide]  64%
15. CC1CCc2c(sc(NC(=O)c3cccc(S(=O)(=O)Nc4ccccc4Cl)c3)c2C#N)C1 (stereo not shown) [I-437, 3-(N-(2-chlorophenyl)sulfamoyl)-N-(3-cyano-6-methyl-4,5,6,7-tetrahydrobenzo[b]thiophen-2-yl)benzamide]  64%
16. O=C(Nc1ccc2[nH]nnc2c1)c1ccc(S(=O)(=O)Nc2ccc(Cl)cc2)cc1 [I-389, N-(1H-benzo[d][1,2,3]triazol-5-yl)-4-(N-(4-chlorophenyl)sulfamoyl)benzamide]  63%
17. Cc1cccc(NS(=O)(=O)c2cc(C(=O)N3CCCc4ccccc43)ccc2C)c1 [I-438, 2-methyl-5-(1,2,3,4-tetrahydroquinoline-1-carbonyl)-N-(m-tolyl)benzenesulfonamide]  63%
18. Cc1ccc(NC(=O)c2ccc(S(=O)(=O)Nc3ccc(Cl)cc3)cc2)cc1S(=O)(=O)N(C)C [I-390, 4-(N-(4-chlorophenyl)sulfamoyl)-N-(3-(N,N-dimethylsulfamoyl)-4-methylphenyl)benzamide]  62%
19. Cc1ccc(NS(=O)(=O)c2ccc(C(=O)N3c4ccccc4CC3C)cc2)cc1 (stereo not shown) [I-391, 4-(2-methylindoline-1-carbonyl)-N-(p-tolyl)benzenesulfonamide]  62%
20. O=C(Nc1cccc(S(=O)(=O)N2CCOCC2)c1)c1ccc(S(=O)(=O)Nc2ccc(Cl)cc2)cc1 [I-393, 4-(N-(4-chlorophenyl)sulfamoyl)-N-(3-(morpholinosulfonyl)phenyl)benzamide]  57%
21. Cc1ccc(NS(=O)(=O)c2ccc(C(=O)Nc3ccccc3C)cc2)cc1 [I-394, N-(o-tolyl)-4-(N-(p-tolyl)sulfamoyl)benzamide]  54%
22. CCc1cccc(NC(=O)c2ccc(S(=O)(=O)Nc3ccc(Cl)cc3)cc2)c1 [I-395, 4-(N-(4-chlorophenyl)sulfamoyl)-N-(3-ethylphenyl)benzamide]  51%
23. Cc1ccc(NS(=O)(=O)c2ccc(C(=O)Nc3ccc(Cl)cc3C)cc2)cc1 [I-396, N-(4-chloro-2-methylphenyl)-4-(N-(p-tolyl)sulfamoyl)benzamide]  50%
24. O=C(c1ccc(S(=O)(=O)Nc2ccccc2)cc1)N1CCCc2ccccc21 [I-397, N-phenyl-4-(1,2,3,4-tetrahydroquinoline-1-carbonyl)benzenesulfonamide]  45%
25. CC(=O)c1cccc(NC(=O)c2ccc(S(=O)(=O)Nc3ccc(C)cc3)cc2)c1 [I-398, N-(3-acetylphenyl)-4-(N-(p-tolyl)sulfamoyl)benzamide]  44%
26. COc1ccc(NC(=O)c2ccc(S(=O)(=O)Nc3cccc(C(F)(F)F)c3)cc2)c(OC)c1 [I-399, N-(2,4-dimethoxyphenyl)-4-(N-(3-(trifluoromethyl)phenyl)sulfamoyl)benzamide]  43%
27. O=C(Nc1ccc(F)cc1)c1ccc(S(=O)(=O)Nc2ccccc2Cl)cc1 [I-400, 4-(N-(2-chlorophenyl)sulfamoyl)-N-(4-fluorophenyl)benzamide]  41%
28. O=C(Nc1ccc2c(c1)OCO2)c1ccc(S(=O)(=O)Nc2ccccc2F)cc1 [I-401, N-(benzo[d][1,3]dioxol-5-yl)-4-(N-(2-fluorophenyl)sulfamoyl)benzamide]  41%
29. COc1ccc(NC(=O)c2ccc(S(=O)(=O)Nc3ccccc3)cc2)cc1 [I-402, N-(4-methoxyphenyl)-4-(N-phenylsulfamoyl)benzamide]  40%
30. COc1ccc(NC(=O)c2ccc(S(=O)(=O)Nc3cccc(C(F)(F)F)c3)cc2)cc1OC [I-403, N-(3,4-dimethoxyphenyl)-4-(N-(3-(trifluoromethyl)phenyl)sulfamoyl)benzamide]  38%
31. Cc1ccccc1NS(=O)(=O)c1ccc(C(=O)Nc2cccc([N+](=O)[O-])c2C)cc1 [I-404, N-(2-methyl-3-nitrophenyl)-4-(N-(o-tolyl)sulfamoyl)benzamide]  38%
32. O=C(Nc1ccccc1OC(F)F)c1ccc(S(=O)(=O)Nc2ccccc2)cc1 [I-405, N-(2-(difluoromethoxy)phenyl)-4-(N-phenylsulfamoyl)benzamide]  35%
33. N#Cc1cccc(NC(=O)c2ccc(S(=O)(=O)Nc3ccccc3F)cc2)c1 [I-406, N-(3-cyanophenyl)-4-(N-(2-fluorophenyl)sulfamoyl)benzamide]  30%
34. O=C(Nc1cccc(C(F)(F)F)c1)c1ccc(S(=O)(=O)Nc2ccccc2F)cc1 [I-407, 4-(N-(2-fluorophenyl)sulfamoyl)-N-(3-(trifluoromethyl)phenyl)benzamide]  30%
35. COc1ccc(NC(=O)c2ccc(S(=O)(=O)Nc3ccc(F)cc3)cc2)cc1 [I-408, 4-(N-(4-fluorophenyl)sulfamoyl)-N-(4-methoxyphenyl)benzamide]  30%
36. COc1ccccc1NS(=O)(=O)c1ccc(C(=O)Nc2ccc3c(c2)OCO3)cc1 [I-409, N-(benzo[d][1,3]dioxol-5-yl)-4-(N-(2-methoxyphenyl)sulfamoyl)benzamide]  30%
37. COc1ccccc1NS(=O)(=O)c1ccc(C(=O)Nc2cccc(C(F)(F)F)c2)cc1 [I-410, 4-(N-(2-methoxyphenyl)sulfamoyl)-N-(3-(trifluoromethyl)phenyl)benzamide]  29%
38. Cc1ccccc1NS(=O)(=O)c1ccc(C(=O)Nc2ccc(Cl)cc2)cc1 [I-411, N-(4-chlorophenyl)-4-(N-(o-tolyl)sulfamoyl)benzamide]  21%
39. COc1ccc([N+](=O)[O-])cc1NS(=O)(=O)c1ccc(C(=O)Nc2ccc(F)cc2F)cc1 [I-412, N-(2,4-difluorophenyl)-4-(N-(2-methoxy-5-nitrophenyl)sulfamoyl)benzamide]  18%
40. COc1ccc(NS(=O)(=O)c2ccc(C(=O)Nc3cccc(C(C)=O)c3)cc2)cc1 [I-413, N-(3-acetylphenyl)-4-(N-(4-methoxyphenyl)sulfamoyl)benzamide]  16%
41. COc1ccccc1NS(=O)(=O)c1ccc(C(=O)Nc2ccc(F)c([N+](=O)[O-])c2)cc1 [I-414, N-(4-fluoro-3-nitrophenyl)-4-(N-(2-methoxyphenyl)sulfamoyl)benzamide]  15%
42. O=C(Nc1ccc2c(c1)OCCCO2)c1ccc(S(=O)(=O)Nc2ccc(F)cc2)cc1 [I-415, N-(3,4-dihydro-2H-benzo[b][1,4]dioxepin-7-yl)-4-(N-(4-fluorophenyl)sulfamoyl)benzamide]  13%
43. COc1ccc(NS(=O)(=O)c2ccc(C(=O)Nc3ccc(F)cc3C)cc2)cc1 [I-416, N-(4-fluoro-2-methylphenyl)-4-(N-(4-methoxyphenyl)sulfamoyl)benzamide]  13%
